Like-named read-outs stand apart in the source and are kept apart here. Positions of bridges follow the written chain, without caps; N, C: chain ends. Non-standard residues stand in square brackets, D forms with d. Residues, ends and D or L forms follow the SMILES beside them. Groups on a side chain read outwards from the residue. *: point of attachment. X1 = C[N+](C)(CCNC(=O)CCCCCCCCCCCCCCCCC(=O)O)CC(=O)*; X5 = CCCCCCCCCCCCCCCC(=O)NCC[N+](C)(C)CC(=O)*; C18 diacid = O=C(O)CCCCCCCCCCCCCCCCC(=O)*; Dip = N[C@H](C(=O)O)C(c1ccccc1)c1ccccc1; Palmitoyl = CCCCCCCCCCCCCCCC(=O)*; 3Pal = N[C@@H](Cc1cccnc1)C(=O)O; dNMeQ = CN[C@H](CCC(N)=O)C(=O)O; β3hF = N[C@H](CC(=O)O)Cc1ccccc1; Aad = N[C@@H](CCCC(=O)O)C(=O)O; dNMeL = CN[C@H](CC(C)C)C(=O)O; NMeK = CN[C@@H](CCCCN)C(=O)O; Isovaleryl = CC(C)CC(=O)*; Dap = NC[C@H](N)C(=O)O; AEEA = NCCOCCOCC(=O)O; Ahx = NCCCCCC(=O)O

Assay [1] deals with T1, ferroportin (Homo sapiens, UniProt Q9NP59).
T1 sequence (Q9NP59 1-571): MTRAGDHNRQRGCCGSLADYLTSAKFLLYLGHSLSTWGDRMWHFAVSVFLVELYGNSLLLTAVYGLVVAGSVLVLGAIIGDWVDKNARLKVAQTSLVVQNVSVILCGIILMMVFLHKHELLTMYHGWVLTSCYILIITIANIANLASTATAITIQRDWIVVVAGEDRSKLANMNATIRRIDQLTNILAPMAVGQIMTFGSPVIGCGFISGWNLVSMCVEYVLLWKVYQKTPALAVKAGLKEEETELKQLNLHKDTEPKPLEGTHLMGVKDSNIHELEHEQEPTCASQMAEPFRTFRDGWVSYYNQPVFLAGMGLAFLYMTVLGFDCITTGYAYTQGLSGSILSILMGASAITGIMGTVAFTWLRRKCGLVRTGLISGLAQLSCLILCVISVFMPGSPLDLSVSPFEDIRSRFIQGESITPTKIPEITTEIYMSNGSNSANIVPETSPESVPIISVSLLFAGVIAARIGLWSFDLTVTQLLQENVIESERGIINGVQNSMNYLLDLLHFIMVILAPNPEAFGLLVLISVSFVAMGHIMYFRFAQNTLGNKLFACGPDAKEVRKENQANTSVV
Briefly: FPN activity assay: ferroportin-GFP internalization/degradation in HEK293 cells. The class given is cell-based. On the set-up: expressed in transfected cells. As to conditions: read-out: FPN IC50. The procedure: Following internalization, the ferroporin protein is degraded.
A retro inverse peptide is a peptide with a reversed sequence in all D amino acids. An example is that Hy-Glu-Thr-His-NH2 becomes Hy-DHis-DThr-DGlu-NH2. The EC50 of these reference compounds for ferroportin internalization/degradation was determined according to the FPN activity assay described above. These peptides served as control standards.

Assay [2] deals with T1, ferroportin. Briefly: T47D cell-based ferroportin internalization assay in presence of mouse serum albumin (MSA). On the set-up: a human breast carcinoma adherent cell line which endogenously expresses ferroportin; host or cells: T47D. The procedure, abridged: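 Peptide potency for inducing ferroportin internalization was measured in T47D cells in the presence of serum albumin. Cells grown in RPMI with fetal bovine serum were seeded in 96-well plates at 80-100 k cells per well in 100 ul and rested overnight. Dilution series of test peptides were preincubated 30 min at room temperature, then added to the cells after the medium was aspirated.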

The mark [3] stands for this setting: ferroportin-GFP internalization/degradation, HEK293 cells, Table 6E.
Setting [4] is: T47D internalization assay in presence of mouse serum albumin (MSA), Table 6E.
The mark [5] stands for this setting: Table 6E, ferroportin-GFP internalization/degradation, at least 18 hours incubation.
Where [6] appears, read: Table 6E, T47D internalization assay with MSA.
Where [7] appears, read: ferroportin-GFP HEK293 cells, at least 18 hours.
Where [8] appears, read: T47D cells, 0.5% mouse serum albumin, 1 hr incubation.

Take `COC(=O)CC[C@H](NC(=O)CC(C)C)C(=O)N[C@H](C(=O)N[C@@H](Cc1c[nH]cn1)C(=O)N[C@H](C(=O)N1CCC[C@H]1C(=O)N[C@H]1CSSC[C@@H](C(=O)N[C@@H](CCCCNC(=O)CCCCCNC(=O)C[N+](C)(C)CCNC(=O)CCCCCCCCCCCCCCCCC(=O)O)C(=O)N[C@H](CC(=O)N[C@H](CCCCN)C(N)=O)Cc2ccccc2)NC1=O)C(c1ccccc1)c1ccccc1)[C@@H](C)O` [compound 311] (Isovaleryl-E(OMe)TH[Dip]PCCK([Ahx-X1])[β3hF][dK]-NH2; disulfide 6-7): the DC50 on ferroportin [1] (setting [3]) lay within 10 to 100 nM. The IC50 (in general, the concentration needed to halve the response being measured) on ferroportin [2] (setting [4]) lay within 10 to 100 nM.
For `CCCCCCCCCCCCCCCC(=O)NCC[N+](C)(C)CC(=O)NCCCC[C@H]1C(=O)N[C@@H](C(c2ccccc2)c2ccccc2)C(=O)N[C@@H](C(N)=O)CCCCNC(=O)CC[C@H](NC(=O)CC(C)C)C(=O)N[C@@H]([C@@H](C)O)C(=O)N[C@@H](Cc2c[nH]cn2)C(=O)N[C@@H](C(c2ccccc2)c2ccccc2)C(=O)N2CCC[C@H]2C(=O)N[C@H]2CSSC[C@H](NC2=O)C(=O)N1C` [compound 143] (Isovaleryl-ETH[Dip]PCC[NMeK](X5)[Dip][dK]-NH2; lactam 1-10; disulfide 6-7), at ferroportin [1] (setting [5]), the DC50 is 10 to 100 nM. Also, the IC50 on ferroportin [2] (setting [6]) was 1 to 10 nM.
In the case of `CC(C)CC(=O)N[C@@H](CCC(=O)O)C(=O)N[C@H](C(=O)N[C@@H](Cc1c[nH]cn1)C(=O)N[C@H](C(=O)N1CCC[C@H]1C(=O)N[C@H]1CSSC[C@@H](C(=O)N[C@@H](CCCCNC(=O)COCCOCCNC(=O)COCCOCCNC(=O)CCCCCNC(=O)CCCCCCCCCCCCCCCCC(=O)O)C(=O)N[C@H](CC(=O)N[C@H](CCCCN)C(N)=O)Cc2ccccc2)NC1=O)C(c1ccccc1)c1ccccc1)[C@@H](C)O` [Compd 22] (Isovaleryl-ETH[Dip]PCCK([AEEA-AEEA-Ahx-C18 diacid])[β3hF][dK]-NH2; disulfide 6-7), on ferroportin [1] (setting [7]), the DC50 lay in the range of 10 to 100 nM. On ferroportin [2] (setting [8]), the IC50 was in the range of 10 to 100 nM.
On to `CC[C@H](C)[C@H](NC(=O)[C@@H]1CSSC[C@H](NC(=O)[C@@H](NC(=O)[C@H](Cc2c[nH]cn2)NC(=O)[C@@H](NC(=O)[C@H](CCC(=O)O)NC(=O)CC(C)C)[C@@H](C)O)C(c2ccccc2)c2ccccc2)C(=O)N1)C(=O)N[C@@H](CCCCNC(=O)COCCOCCNC(=O)COCCOCCNC(=O)CCCCCNC(=O)CCCCCCCCCCCCCCCCC(=O)O)C(=O)N[C@H](CC(=O)N[C@H](CCCCN)C(N)=O)Cc1ccccc1` [Compd 21] (Isovaleryl-ETH[Dip]CCIK([AEEA-AEEA-Ahx-C18 diacid])[β3hF][dK]-NH2; disulfide 5-6), for which the DC50 at ferroportin [1] (setting [7]) was in the range of 10 to 100 nM. At ferroportin [2] (setting [8]), the IC50 was in the range of 10 to 100 nM.
`CC(C)CC(=O)N[C@@H](CCCC(=O)O)C(=O)N[C@H](C(=O)N[C@@H](Cc1cccnc1)C(=O)N[C@H](C(=O)N1CCC[C@H]1C(=O)N[C@H]1CSSC[C@@H](C(=O)N(C)[C@@H](CCCCNC(=O)COCCOCCNC(=O)COCCOCCNC(=O)[C@H](CN)NC(=O)CCCCCCCCCCCCCCCCC(=O)O)C(=O)N[C@H](C(=O)N[C@H](CCCCN)C(N)=O)C(c2ccccc2)c2ccccc2)NC1=O)C(c1ccccc1)c1ccccc1)[C@@H](C)O` [compound 242] (Isovaleryl-[Aad]T[3Pal][Dip]PCC[NMeK]([AEEA-AEEA-Dap-C18 diacid])[Dip][dK]-NH2; disulfide 6-7): the DC50 at ferroportin [1] (setting [3]) was in the range of 10 to 100 nM. Also, on ferroportin [2] (setting [4]), the IC50 fell in the range of 10 to 100 nM.
On to `CC(C)CC(=O)N[C@@H](CCC(=O)O)C(=O)N[C@H](C(=O)N[C@@H](Cc1cnc[nH]1)C(=O)N[C@H](C(=O)N1CCC[C@H]1C(=O)N[C@H]1CSSC[C@@H](C(=O)N(C)[C@@H](CCCCNC(=O)COCCOCCNC(=O)COCCOCCNC(=O)[C@H](CN)NC(=O)CCCCCCCCCCCCCCCCC(=O)O)C(=O)N[C@H](CC(=O)N[C@H](CCCCN)C(=O)N(C)[C@H](CC(C)C)C(N)=O)Cc2ccccc2)NC1=O)C(c1ccccc1)c1ccccc1)[C@@H](C)O` [compound 249] (Isovaleryl-ETH[Dip]PCC[NMeK]([AEEA-AEEA-Dap-C18 diacid])[β3hF][dK][dNMeL]-NH2; disulfide 6-7), for which the DC50 at ferroportin [1] (setting [3]) lay within 10 to 100 nM. For the same molecule, the IC50 at ferroportin [2] (setting [4]) was 10 to 100 nM.
Take `CC(C)CC(=O)N[C@@H](CCC(=O)O)C(=O)N[C@H](C(=O)N[C@@H](Cc1c[nH]cn1)C(=O)N[C@H](C(=O)N1CCC[C@H]1C(=O)N[C@H]1CSSC[C@@H](C(=O)N(C)[C@@H](CCCCNC(=O)COCCOCCNC(=O)COCCOCCNC(=O)[C@H](CN)NC(=O)CCCCCCCCCCCCCCCCC(=O)O)C(N)=O)NC1=O)C(c1ccccc1)c1ccccc1)[C@@H](C)O` [compound 294] (Isovaleryl-ETH[Dip]PCC[NMeK]([AEEA-AEEA-Dap-C18 diacid])-NH2; disulfide 6-7): at ferroportin [1] (setting [3]), the DC50 was in the range of 10 to 100 nM. Besides, on ferroportin [2] (setting [4]), the IC50 fell in the range of 10 to 100 nM.
`CC[C@H](C)[C@@H]1NC(=O)[C@@H](NC(=O)[C@@H]2CCCN2C(=O)[C@@H](NC(=O)[C@H](Cc2c[nH]cn2)NC(=O)[C@@H](NC(=O)[C@H](CCC(=O)O)NC(=O)CC(C)C)[C@@H](C)O)C(c2ccccc2)c2ccccc2)CSSC[C@@H](C(N)=O)NC(=O)C[C@H](Cc2ccccc2)NC(=O)[C@H](CCCCNC(=O)COCCOCCNC(=O)COCCOCCNC(=O)CCCCCNC(=O)CCCCCCCCCCCCCCCCC(=O)O)NC1=O` [Compd 23] (Isovaleryl-ETH[Dip]PCIK([AEEA-AEEA-Ahx-C18 diacid])[β3hF]C-NH2; disulfide 6-10): on ferroportin [1] (setting [7]), the DC50 lay within 10 to 100 nM. The IC50 at ferroportin [2] (setting [8]) was in the range of 10 to 100 nM.
As to `CC(C)CC(=O)N[C@@H](CCC(=O)O)C(=O)N[C@H](C(=O)N[C@@H](Cc1c[nH]cn1)C(=O)N[C@H](C(=O)N1CCC[C@H]1C(=O)N[C@H]1CSSC[C@@H](C(=O)N(C)[C@@H](CCCCNC(=O)COCCOCCNC(=O)COCCOCCNC(=O)[C@H](CN)NC(=O)CCCCCCCCCCCCCCCCC(=O)O)C(=O)N[C@H](CC(=O)N[C@H](CCCCN)C(=O)N(C)[C@H](CCC(N)=O)C(N)=O)Cc2ccccc2)NC1=O)C(c1ccccc1)c1ccccc1)[C@@H](C)O` [compound 248] (Isovaleryl-ETH[Dip]PCC[NMeK]([AEEA-AEEA-Dap-C18 diacid])[β3hF][dK][dNMeQ]-NH2; disulfide 6-7), on ferroportin [1] (setting [3]), the DC50 was 10 to 100 nM. For the same molecule, on ferroportin [2] (setting [4]), the IC50 lay within 10 to 100 nM.
For the molecule `COC(=O)CCC(CCCC(C)C)C(=O)N[C@H](C(=O)N[C@@H](Cc1c[nH]cn1)C(=O)N[C@H](C(=O)N1CCC[C@H]1C(=O)N[C@H]1CSSC[C@@H](C(=O)N(C)[C@@H](CCCCNC(=O)CCCCCNC(=O)C[N+](C)(C)CCNC(=O)CCCCCCCCCCCCCCCCC(=O)O)C(=O)N[C@H](C(=O)N[C@H](CCCCN)C(N)=O)C(c2ccccc2)c2ccccc2)NC1=O)C(c1ccccc1)c1ccccc1)[C@@H](C)O` (single isomer, unassigned) [compound 137], the DC50 on ferroportin [1] (setting [5]) was 10 to 100 nM. In addition, the IC50 at ferroportin [2] (setting [6]) is 10 to 100 nM.
For the molecule `CCCCCCCCCCCCCCCC(=O)NCCCCCC(=O)NCCCC[C@@H](C(=O)N[C@H](CC(=O)N[C@H](CCCCN)C(N)=O)Cc1ccccc1)N(C)C(=O)[C@@H]1CSSC[C@H](NC(=O)[C@@H]2CCCN2C(=O)[C@@H](NC(=O)[C@H](Cc2cnc[nH]2)NC(=O)[C@@H](NC(=O)[C@H](CCC(=O)O)NC(=O)CC(C)C)[C@@H](C)O)C(c2ccccc2)c2ccccc2)C(=O)N1` [compound 308] (Isovaleryl-ETH[Dip]PCC[NMeK]([Ahx-Palmitoyl])[β3hF][dK]-NH2; disulfide 6-7), at ferroportin [1] (setting [3]), the DC50 lay within 10 to 100 nM. Further, the IC50 at ferroportin [2] (setting [4]) was 1 to 10 nM.
For `CC(C)CC(=O)N[C@@H](CCC(=O)O)C(=O)N[C@H](C(=O)N[C@@H](Cc1cnc[nH]1)C(=O)N[C@H](C(=O)N1CCC[C@H]1C(=O)N[C@H]1CSSC[C@@H](C(=O)N(C)[C@@H](CCCCNC(=O)COCCOCCNC(=O)COCCOCCNC(=O)[C@H](CN)NC(=O)CCCCCCCCCCCCCCCCC(=O)O)C(=O)N[C@H](CC(=O)N(C)[C@@H](CCCCN)C(N)=O)Cc2ccccc2)NC1=O)C(c1ccccc1)c1ccccc1)[C@@H](C)O` [compound 292] (Isovaleryl-ETH[Dip]PCC[NMeK]([AEEA-AEEA-Dap-C18 diacid])[β3hF][NMeK]-NH2; disulfide 6-7) the same measures were 10 to 100 nM and 1 to 10 nM.

Values taken from US20250277012A1 (Protagonist Therapeutics, Inc., priority 2021, published 2025).
